According to PMC3889466 (Journal of medicinal chemistry, 2013):

How the values were obtained:
A/M2 V27A = A/M2 V27A (Influenza A virus, UniProt P0DOF5, V27A); details: cited from earlier work
A/M2 S31N [1] = target: T1, A/M2 S31N (Influenza A virus, UniProt P0DOF5, S31N); details: conductance assay in M2-expressing oocytes; cited from earlier work
A/M2 S31N [2] = target: T1, A/M2 S31N; format: cell-based, influenza A/Udorn/72; details: pH 5.5

Row | Structure (SMILES) | Activity against the V27A mutant form of A/M2 (in words) (A/M2 V27A) | Activity against the S31N mutant form of A/M2 (in words) (A/M2 S31N [1]) | A/M2 S31N Inhibition by 100 μM for 2 min (%) (A/M2 S31N [2])
1 | CC12CC3CC1(C)CC3(N)C2 [Compound 6] | inactive | inactive | –
2 | CC12CC3CC1(C)CC3(CN)C2 [Compound 7] | inactive | inactive | –
3 | NC12C3CCC4C3C3C(CCC31)C42 [Compound 8] | did not show any activity | – | –
4 | NCC12C3CCC4C3C3C(CCC31)C42 [Compound 9] | did not show any activity | – | –
5 | C1=CC2C3C4C5C=CC4C24CNCC54C13 [Compound 10] | marginal activity | – | –
6 | C1C2C1C1C3C4C5C6CC6C4C14CNCC54C23 (stereo not drawn) [Compound 11] | marginal activity | – | –
7 | CC12CC34CNCC3(C1)CC2(C)C4.Cl [Compound 14a, 7,8-Dimethyl-3-azatetracyclo[5.2.1.1^5,8.0^1,5]undecane hydrochloride] | – | – | 0%
